The source made the active and inactive calls. No cut-off for these calls is given here.
Columns and labels:
[1] = target: T1, SNF-related serine/threonine-protein kinase (Homo sapiens) (UniProt Q9NRH2); assay: Inhibition of SNRK (unknown origin) assessed as residual activity at 100 nM by KINOMEscan analysis relative to control
T1 sequence (whole entry): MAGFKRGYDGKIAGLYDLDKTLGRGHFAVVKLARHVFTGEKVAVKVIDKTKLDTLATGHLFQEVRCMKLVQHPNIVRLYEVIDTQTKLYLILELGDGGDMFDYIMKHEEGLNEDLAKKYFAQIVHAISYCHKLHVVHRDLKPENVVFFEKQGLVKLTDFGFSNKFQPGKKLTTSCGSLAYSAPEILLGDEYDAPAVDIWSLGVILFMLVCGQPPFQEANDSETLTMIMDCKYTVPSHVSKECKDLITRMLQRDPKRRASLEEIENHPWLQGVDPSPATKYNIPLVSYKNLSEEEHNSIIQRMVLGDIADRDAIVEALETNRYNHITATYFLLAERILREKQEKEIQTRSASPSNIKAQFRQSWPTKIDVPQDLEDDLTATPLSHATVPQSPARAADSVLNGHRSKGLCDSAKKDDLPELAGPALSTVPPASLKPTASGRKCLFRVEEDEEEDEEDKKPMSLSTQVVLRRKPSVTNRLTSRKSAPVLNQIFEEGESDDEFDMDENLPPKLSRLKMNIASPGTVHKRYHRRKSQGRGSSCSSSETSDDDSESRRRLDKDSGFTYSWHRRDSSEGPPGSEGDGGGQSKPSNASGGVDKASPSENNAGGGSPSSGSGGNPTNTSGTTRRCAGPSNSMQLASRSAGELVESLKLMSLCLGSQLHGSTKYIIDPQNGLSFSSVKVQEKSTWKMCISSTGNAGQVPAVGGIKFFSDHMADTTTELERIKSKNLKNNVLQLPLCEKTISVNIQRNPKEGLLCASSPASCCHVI

[2] = target: T2, Son of sevenless homolog 1 (Homo sapiens) (UniProt Q07889); assay: Binding affinity to N-terminal His10-tagged wild-type recombinant human SOS1 catalytic domain (564 to 1049 residues) expressed in Escherichia coli assessed as binding at 1:1 stoichiometry at 100 uM incubated for 1 hr by native MS analysis
T2 sequence (whole entry): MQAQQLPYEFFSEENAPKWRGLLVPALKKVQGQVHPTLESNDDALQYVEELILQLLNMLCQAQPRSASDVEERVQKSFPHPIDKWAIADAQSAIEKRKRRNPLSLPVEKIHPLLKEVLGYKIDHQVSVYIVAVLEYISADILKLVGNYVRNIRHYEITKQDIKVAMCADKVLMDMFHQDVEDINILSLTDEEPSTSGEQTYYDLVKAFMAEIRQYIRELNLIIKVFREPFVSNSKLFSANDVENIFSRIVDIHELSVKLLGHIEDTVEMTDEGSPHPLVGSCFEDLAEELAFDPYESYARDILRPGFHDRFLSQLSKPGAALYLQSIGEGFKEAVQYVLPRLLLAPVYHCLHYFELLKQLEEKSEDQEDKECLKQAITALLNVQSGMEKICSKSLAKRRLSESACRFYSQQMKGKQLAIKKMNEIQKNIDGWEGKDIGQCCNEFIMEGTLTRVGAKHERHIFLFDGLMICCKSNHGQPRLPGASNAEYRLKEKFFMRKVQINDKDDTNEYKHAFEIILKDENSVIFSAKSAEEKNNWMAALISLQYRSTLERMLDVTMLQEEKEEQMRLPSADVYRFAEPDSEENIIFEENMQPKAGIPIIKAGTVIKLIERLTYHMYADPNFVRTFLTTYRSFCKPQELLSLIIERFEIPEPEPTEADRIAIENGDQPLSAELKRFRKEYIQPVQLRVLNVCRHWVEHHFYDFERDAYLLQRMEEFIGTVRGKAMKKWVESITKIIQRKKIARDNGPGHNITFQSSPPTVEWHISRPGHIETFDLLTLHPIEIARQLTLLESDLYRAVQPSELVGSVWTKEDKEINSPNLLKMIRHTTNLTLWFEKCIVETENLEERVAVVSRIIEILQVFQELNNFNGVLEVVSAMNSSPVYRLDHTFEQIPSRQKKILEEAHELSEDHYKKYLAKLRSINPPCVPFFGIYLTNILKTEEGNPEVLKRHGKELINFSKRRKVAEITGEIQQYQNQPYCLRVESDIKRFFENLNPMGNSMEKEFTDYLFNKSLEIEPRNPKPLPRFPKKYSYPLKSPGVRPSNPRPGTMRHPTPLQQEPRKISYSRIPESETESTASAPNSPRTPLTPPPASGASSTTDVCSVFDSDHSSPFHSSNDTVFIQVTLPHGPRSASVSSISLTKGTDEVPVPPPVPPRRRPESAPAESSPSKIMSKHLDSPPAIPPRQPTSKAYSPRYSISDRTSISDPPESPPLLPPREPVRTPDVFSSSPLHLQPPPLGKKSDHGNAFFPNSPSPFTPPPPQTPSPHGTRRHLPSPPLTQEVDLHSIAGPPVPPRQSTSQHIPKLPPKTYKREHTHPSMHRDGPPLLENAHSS

[3] = target: T3, Rhodopsin kinase GRK7 (Homo sapiens) (UniProt Q8WTQ7); assay: Inhibition of GRK7 (unknown origin) assessed as residual activity at 100 nM by KINOMEscan analysis relative to control
T3 sequence (whole entry): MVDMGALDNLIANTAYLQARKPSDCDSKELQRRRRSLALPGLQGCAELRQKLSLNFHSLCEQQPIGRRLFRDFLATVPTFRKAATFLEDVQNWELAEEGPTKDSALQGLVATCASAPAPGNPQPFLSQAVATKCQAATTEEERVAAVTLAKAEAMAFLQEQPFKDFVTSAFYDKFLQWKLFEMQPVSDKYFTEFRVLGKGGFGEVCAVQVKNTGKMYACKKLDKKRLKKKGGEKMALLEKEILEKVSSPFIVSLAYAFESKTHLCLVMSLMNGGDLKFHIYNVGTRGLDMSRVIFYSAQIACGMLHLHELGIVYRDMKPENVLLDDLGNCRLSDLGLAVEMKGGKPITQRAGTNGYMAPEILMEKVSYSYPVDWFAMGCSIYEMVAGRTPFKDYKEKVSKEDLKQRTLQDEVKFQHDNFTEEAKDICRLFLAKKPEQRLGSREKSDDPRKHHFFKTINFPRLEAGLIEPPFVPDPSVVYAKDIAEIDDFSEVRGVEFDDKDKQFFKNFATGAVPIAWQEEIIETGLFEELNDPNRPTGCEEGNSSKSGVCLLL

[4] = target: Receptor tyrosine-protein kinase erbB-4 (Homo sapiens) (UniProt Q15303); assay: Inhibition of ERBB4 (unknown origin) assessed as residual activity at 100 nM by KINOMEscan analysis relative to control
Receptor tyrosine-protein kinase erbB-4 (Homo sapiens), sequence (Q15303 whole entry): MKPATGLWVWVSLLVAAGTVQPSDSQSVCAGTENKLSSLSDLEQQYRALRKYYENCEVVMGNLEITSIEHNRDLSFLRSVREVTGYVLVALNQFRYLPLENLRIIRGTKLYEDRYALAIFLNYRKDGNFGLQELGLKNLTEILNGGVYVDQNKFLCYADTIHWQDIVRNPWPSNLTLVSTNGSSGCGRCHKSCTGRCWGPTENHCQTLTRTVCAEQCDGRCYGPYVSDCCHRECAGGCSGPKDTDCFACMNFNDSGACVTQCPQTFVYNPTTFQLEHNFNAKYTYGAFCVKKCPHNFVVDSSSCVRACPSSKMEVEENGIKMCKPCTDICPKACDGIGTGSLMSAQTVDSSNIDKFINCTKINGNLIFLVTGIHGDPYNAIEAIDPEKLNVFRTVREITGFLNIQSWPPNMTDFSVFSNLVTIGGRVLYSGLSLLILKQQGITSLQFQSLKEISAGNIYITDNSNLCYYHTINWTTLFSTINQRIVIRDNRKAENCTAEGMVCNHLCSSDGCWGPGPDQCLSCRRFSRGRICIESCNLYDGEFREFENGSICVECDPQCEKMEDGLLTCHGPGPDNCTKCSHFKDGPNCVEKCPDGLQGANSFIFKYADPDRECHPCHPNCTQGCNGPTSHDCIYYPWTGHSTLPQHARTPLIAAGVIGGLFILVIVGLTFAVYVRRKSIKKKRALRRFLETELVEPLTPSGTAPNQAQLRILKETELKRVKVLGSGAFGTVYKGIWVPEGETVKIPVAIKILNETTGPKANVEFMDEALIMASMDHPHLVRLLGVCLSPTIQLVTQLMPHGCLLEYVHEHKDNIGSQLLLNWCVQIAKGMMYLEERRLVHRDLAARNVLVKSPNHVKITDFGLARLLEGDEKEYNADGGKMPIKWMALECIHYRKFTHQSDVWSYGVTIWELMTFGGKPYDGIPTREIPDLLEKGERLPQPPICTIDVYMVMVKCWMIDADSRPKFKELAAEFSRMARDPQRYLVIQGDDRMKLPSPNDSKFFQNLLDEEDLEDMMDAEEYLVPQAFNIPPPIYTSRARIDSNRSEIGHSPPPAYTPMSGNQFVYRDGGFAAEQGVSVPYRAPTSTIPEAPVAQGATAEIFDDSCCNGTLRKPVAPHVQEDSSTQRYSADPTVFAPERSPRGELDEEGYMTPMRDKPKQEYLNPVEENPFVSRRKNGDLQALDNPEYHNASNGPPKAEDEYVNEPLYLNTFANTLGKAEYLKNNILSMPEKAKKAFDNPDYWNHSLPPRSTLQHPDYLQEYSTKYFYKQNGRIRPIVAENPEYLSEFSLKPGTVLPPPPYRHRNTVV

[5] = target: Serine/threonine-protein kinase SIK2 (Homo sapiens) (UniProt Q9H0K1); assay: Inhibition of SIK2 (unknown origin) assessed as residual activity at 100 nM by KINOMEscan analysis relative to control
Serine/threonine-protein kinase SIK2 (Homo sapiens), sequence (Q9H0K1 whole entry, looked up): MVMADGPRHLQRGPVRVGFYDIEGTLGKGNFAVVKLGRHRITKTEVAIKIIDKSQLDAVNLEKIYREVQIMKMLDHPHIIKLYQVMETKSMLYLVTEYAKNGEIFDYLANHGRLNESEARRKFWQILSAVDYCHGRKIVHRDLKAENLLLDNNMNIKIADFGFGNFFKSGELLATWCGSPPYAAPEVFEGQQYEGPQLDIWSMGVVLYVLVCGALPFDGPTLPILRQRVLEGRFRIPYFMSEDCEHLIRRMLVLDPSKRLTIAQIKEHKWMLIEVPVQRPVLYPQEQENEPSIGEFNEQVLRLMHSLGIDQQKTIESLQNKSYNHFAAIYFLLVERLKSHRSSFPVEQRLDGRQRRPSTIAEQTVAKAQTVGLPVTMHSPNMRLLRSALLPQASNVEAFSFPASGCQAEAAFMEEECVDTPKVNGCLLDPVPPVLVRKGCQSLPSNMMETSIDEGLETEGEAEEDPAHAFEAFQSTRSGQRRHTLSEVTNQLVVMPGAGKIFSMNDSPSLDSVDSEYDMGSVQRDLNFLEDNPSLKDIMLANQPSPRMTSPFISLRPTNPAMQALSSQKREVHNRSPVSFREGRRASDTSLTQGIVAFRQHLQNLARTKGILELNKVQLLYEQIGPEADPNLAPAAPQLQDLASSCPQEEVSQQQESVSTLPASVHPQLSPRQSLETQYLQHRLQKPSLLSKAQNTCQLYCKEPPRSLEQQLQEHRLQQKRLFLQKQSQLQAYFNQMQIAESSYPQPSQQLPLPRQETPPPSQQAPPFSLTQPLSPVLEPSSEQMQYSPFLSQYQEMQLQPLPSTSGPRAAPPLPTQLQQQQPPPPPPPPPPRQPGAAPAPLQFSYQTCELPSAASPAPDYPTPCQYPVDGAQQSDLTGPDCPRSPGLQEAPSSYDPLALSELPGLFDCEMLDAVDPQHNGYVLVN

## COc1cc2ncnc(N[C@H](C)c3cccc4ccccc34)c2cc1OC
[1]
  Activity: 74%
[2]
  Activity: Active
[3]
  Activity: 84%
[4]
  Activity: 100%
[5]
  Activity: 91%

Reference: ChEMBL document CHEMBL5678818, “Discovery of potent SOS1 inhibitors that block RAS activation via disruption of the RAS-SOS1 interaction” (Proc Natl Acad Sci U S A, 2019)
